According to article PMC8202924, “Emodepside targets SLO-1 channels of Onchocerca ochengi and induces broad anthelmintic effects in a bovine model of onchocerciasis” (PLoS Pathogens, 2021):

Key:
[1] = Skin concentration of emodepside in the main trial, LC-MS/MS; type: in vivo, zebu (Ngaoundéré Gudali) cattle (B. t. indicus)
Protocol: Bovine samples (EDTA-plasma, skin snips and nodules) were stored at –80°C in Cameroon and shipped according to international transportation guidelines on dry ice to Bayer, Germany. Due to suspected contamination with other pathogens, samples required decontamination. Based on modified WHO guidelines for viral inactivation and reports of virus stability in fluids and solid media issued by the United States Army, decontamination of samples was performed. Samples were thawed slowly in a microbiological safety cabinet and the plasma samples were vortexed gently. Skin snips and nodules were homogenized in a Qiagen TissueLyser II (Qiagen NV, Hilden, the Netherlands) with stainless steel beads. Homogenates were weighed and mixed with 4.5 volumes of a 0.5% collagenase solution (collagenase from Clostridium histolyticum [>125 IU/mg] Merck KGaA, Darmstadt, Germany), then incubated at 37°C with orbital mixing at 140 rpm for 48 h.
Plasma samples, skin and nodule homogenates were precipitated in a 1:10 ratio with acetonitrile using a vortex mixer at 150 rpm for 10 min, then centrifuged for 5 min at 14,000 rpm. The supernatants were pipetted into gas-tight vials and incubated at 80°C for 21 min to achieve a core temperature of 80°C for 10 min, then cooled to 4°C in a water-ice bath. Finally, samples were filtered using a cellulose sterile filter (S&S Spartan 13/30) into standard HPLC vials for liquid chromatography–mass spectrometry analysis. For liquid chromatography on a C18 column, a water/methanol gradient (containing 10 mmol ammonium acetate and 0.1 mL/L formic acid) was used. Quantification of emodepside was performed by tandem mass spectrometry on an API 5500 instrument (AB Sciex, Darmstadt, Germany) using the transition of m/z = 1,120 ([M + H]^+) to its product ion m/z = 343.

[2] = Dose identification (tolerability, blood glucose) after single IV infusion in Holstein cattle; type: in vivo, Holstein cattle (Bos taurus)
Text: To ensure that doses of emodepside would be well tolerated in cattle in Cameroon, and that any adverse effects would be manageable in the field, dose identification was first performed in two female Holstein cattle (Bos taurus) 13–15 months old in Germany. Animals were from Rinder Union West, 48147 Münster, Germany, and were kept in a pen in an outdoor climate housing system of approximately 8 × 10 m in size in Hanscheider Hof, 51399 Burscheid, Germany. Pens were equipped with a self-locking feeding fence, deep-straw bedding and an automatic cup drinker system. Animals were offered fresh corn- and grass-silage once daily ad libitum, drinking water from the onsite well and mineral licks ad libitum. Straw bedding was refreshed at least weekly. Tolerability and pharmacokinetics (PK) of emodepside were assessed after a single intravenous (IV) injection: emodepside (4.0% m/m in solketal) was administered by constant infusion via the external jugular vein using disposable sterile IV catheters (Vasofix Braunüle 14G, 2,2 × 50 mm, Braun, Germany), sterile syringes (Perfusor-Syringe 50 mL, Braun, Germany), tubing systems (Braun Original-Perfusor-tubing, 150 cm, Luer Lock), and a perfusion system (Braun Perfusor Space). Animal 1 received emodepside 2.17 mg/kg; animal 2 received emodepside 1 mg/kg. Safety and tolerability were assessed during and after each administration. […] To determine the PK profile of emodepside and any possible influence of the drug on blood glucose concentrations, blood samples were drawn before dosing and at 4 min, 8 min, 15 min, 30 min, 1 h, 2 h, 3 h, 4 h, 6 h, 8 h, 24 h, 32 h, 48 h, 72 h, 96 h and 168 h after administration. Samples for glucose determination were taken before dosing and at 15 min, 30 min, 1 h, 2 h, 3 h, 4 h, 6 h and 8 h after dosing, centrifuged at 10°C (3,220 × g) for 10 min and stored under cool conditions (<8°C).

[3] = tested on: Onchocerca ochengi microfilariae; assay: Dermal microfilarial load (area under the density-time curve); type: in vivo; settings: MRSM, 4 mg/kg every other day for 3 days; vs placebo
Text: Here, the null hypothesis, H0, is that the parameter m is not different to 0. If H0 can be rejected, a concentration-dependent effect of emodepside can be assumed. The alpha level selected for statistical significance was 5%. We considered three PD endpoints, a) uterine contents (with oocytes, developing embryonic stages, normal intrauterine Mf and degenerate intrauterine Mf considered separately), b) skin Mf load, and c) male and female motility (separately). Mf load is defined as the area under the curve of observed counts over time according to Eq 4: Mfload=∑i=2nMfdensityi+Mfdensityi−1/2*ti−ti−1 (4) per individual treated animal. To increase the robustness of the analysis, only animals presenting a skin Mf load of ≥100/100 mg skin at day -1 were included.
The same principle was applied to the analysis of the uterine contents. In order to test a dose-dependent effect, and an effect over placebo, the log load of uterine contents or Mf was used as the PD endpoint E in Eq 3, and exposure C was the sum of doses. Over all doses and individual animals, an effect size (m) and corresponding statistics were calculated using R’s lm function.

[4] = tested on: Onchocerca ochengi adult female worms; assay: Embryogram (uterine contents of female worms from nodules); type: in vivo; settings: MRSM, 4 mg/kg every other day for 3 days; P = 0.005
Protocol: Tattooed nodules were removed under local anesthesia (lidocaine-epinephrine) on study days -1, 90, 180–190, 270–290, 360 and 550 in a randomized order as previously described. Nodules were trimmed of excess tissue and up to four nodules per animal were processed separately as follows: (1) stored frozen at –80°C for PK analysis (up to day 14 only); (2) injected in toto with 10% neutral-buffered formalin and stored at 4°C for histopathology (up to day 290 only); or (3) dissected immediately in phosphate-buffered saline to separate adult male and female worms. The anterior end of the female worm (which even in viable specimens is the only motile part of the parasite) was removed from the worm mass and incubated alongside intact male worms for 30 min at 37°C for visual motility assessment on a three-point scale. The remaining portion of the female worm mass was subjectively scored for fecundity on a four-point scale (0, uteri empty or worm structure degraded; 1, low; 2, intermediate; 3, normal) by examining the uterine contents microscopically in situ. This was followed by a fully quantitative embryogram to enumerate oocytes, embryonic stages and intrauterine Mf as described previously.
The same principle was applied to the analysis of the uterine contents. […] Over all doses and individual animals, an effect size (m) and corresponding statistics were calculated using R’s lm function.

[5] = 1 mg/kg IV perfusion, one animal

SMILES | Median ratio between skin and plasma concentration ([1]; 54 occasions, same study day, all emodepside groups) | tmax observed in skin ([1]; EMO1L, 0.15 mg/kg IV single dose, animals in order B0696, B0698, B0700, B0730, B0731, B0762) [h] | tmax observed in skin ([1]; EMO7H, 0.75 mg/kg IV daily for 7 days, animals in order B0404, B0434, B0694, B0695, B0734, B0750, B0765) [h] | Heart rate by the end of the perfusion [2, 5] | Heart rate, peak during the application [2, 5] [bpm] | Blood glucose, peak ([2]; 1 mg/kg IV, 3–8 h post-application, xylazine at 6–8 h may have contributed) | Blood glucose ([2]; 1 mg/kg IV, after 24 h (normal)) [mmol/L] | Adverse effects ([2]; 1 mg/kg IV, for approximately 1 h after application, then full recovery) | Adverse effects ([2]; 2.17 mg/kg IV perfusion, one animal, treatment discontinued) | Median reduction in Mf load [3] [%] | AUC for all embryonic stages [4]
CC(C)C[C@H]1C(=O)O[C@H](Cc2ccc(N3CCOCC3)cc2)C(=O)N(C)[C@@H](CC(C)C)C(=O)O[C@H](C)C(=O)N(C)[C@@H](CC(C)C)C(=O)O[C@H](Cc2ccc(N3CCOCC3)cc2)C(=O)N(C)[C@@H](CC(C)C)C(=O)O[C@H](C)C(=O)N1C [emodepside] | 1.1 | 24 | 24 | approximately 108 bpm | 140 | ~ 12 mmol/L | 4.33 | Salivation and slight muscle tremors | severe generalised muscle tremor, salivation and tachycardia |  | 
NCCS[As](SCCN)c1ccc(Nc2nc(N)nc(N)n2)cc1 [melarsomine] |  |  |  |  |  |  |  |  |  | 96 | significantly reduced
